These results are taken from patent US8329861B2, “Protein KTPAF50” (Two To Biotech Ltd., priority 2007, dated 2012).

The subject of test [1] is human peripheral white blood cells (pWBC). Nature of the test: Cytokine secretion from PHA-cultured human peripheral white blood cells treated with KTPAF50 (ELISA). Conditions: pWBC in PHA containing medium, treated for 3 days. The test is classed as cell-based. As for the experimental part:
In order to determine the potential effect of KTPAF50 on various diseases, KTPAF50 was incubated with human peripheral white blood cells (pWBC), and the amounts of a panel of cytokines were measured.
Total human white blood cells were cultured in PHA containing medium (Biological Industries INC—catalogue number—01-201-1) (2 million cells/well in 2 ml medium). The control cells were not treated.
At day 3 medium was harvested and subjected to ELISA analysis, using e-Bioscience kits for human IL-17 (catalogue number: 88-7176), human INF-γ (catalogue number: 88-7316) and human TNF-α (catalogue number: 88-7346. The results are summarized in FIGS. 1, 2 and 3.
(In an ELISA, binding on a coated surface is turned into a signal by an enzyme label.)

Test [2] relates to U937 acute myeloid leukemia cells. The test is described as follows: Viable cell detection with Resazurin, U937 cells. The test is classed as cell-based. Conditions: incubated one day, FIG. 4. As for the experimental part: (§1) U937 acute myeloid leukemia cells and PC3 prostate cancer cells were each grown in 10% FCS+RPMI medium and quadruplicates were inoculated into a 96 well plate, 20,000 cells/well.
(§2) KTPAF50 was incubated with the cells for one day, and viable cells were detected using Resazurin (R&D System) and a spectrophotometer.
In order to determine whether the entire KTPAF50 peptide is required for activity, the experiment described in Example III above, using U937 cells, was repeated with the complete KTPAF50 peptide and fragments thereof.

Test [3] concerns PC3 prostate cancer cells. Nature of the test: Viable cell detection with Resazurin, PC3 cells. The settings on record: incubated one day, FIG. 4. The test is classed as cell-based. The protocol: as §1, §2
The next test deals with U937 cells. Nature of the test: U937 tumor growth in athymic nude mice. The settings on record: nude mice inoculated s.c. with 15×10^6 U937 cells, 25 ug/mouse injected from day 9, versus saline control; FIG. 6. The test is classed as in vivo. The protocol:
14 athymic nude female 8-9 week-old mice were purchased from Harlan Biotech, Israel. The mice were inoculated s.c. with 15×10^6 U937 cells. Tumors began to grow, and at day 9 the mice were divided into 2 groups: • A control group which was injected with saline. • A treated group which was injected with KTPAF50 (25 ug/mouse)
At day 20, 4 mice from the control group were sacrificed due to ethical reasons because they had huge tumors.

For “KTPAF50: KTPAF50 peptide devoid of the signal sequence, 50 amino acids: LRRREQAERGSRRCAIAGEERAMLSPSPLPETPFSPEKGAAFSPIYPRRK; chemically synthesized by Anaspec (listed as Homo sapiens)”, in test [1] (FIG. 1), the “secretion of IL-17” value is on record as “stimulated the pWBC to secrete all three cytokines measured”. Further, in test [1] (FIG. 2), the “secretion of INF-γ” value was “stimulated the pWBC to secrete all three cytokines measured”. Moreover, the “secretion of TNF-α” value in test [1] (FIG. 3) was “stimulated the pWBC to secrete all three cytokines measured”. Besides, the “viable cells (normalized to the control amount)” value in test [2] and in test [3] was “significant decrease in viable cells” throughout. Moreover, in the test with U937 cells, the “U937 tumor volume / tumor growth” value is “totally prevented tumor growth”.
